From patent US9669035B2, “Combinations comprising PDE 2 inhibitors such as 1-aryl-4-methyl-[1,2,4]triazolo-[4,3-A]]quinoxaline compounds and PDE 10 inhibitors for use in the treatment of neurological of metabolic disorders” (Janssen Pharmaceutica NV, priority 2012, dated 2017)
Where two headings read alike, the source gives them in different places.

Key:
[1] = molecular target: Rat recombinant PDE10A (rPDE10A2) (Rattus norvegicus (Rat), UniProt Q9QYJ6); assay: In vitro assay PDE10A (SPA, 3H-cAMP); format: biochemical
Sequence of Rat recombinant PDE10A (rPDE10A2) (Q9QYJ6 whole entry): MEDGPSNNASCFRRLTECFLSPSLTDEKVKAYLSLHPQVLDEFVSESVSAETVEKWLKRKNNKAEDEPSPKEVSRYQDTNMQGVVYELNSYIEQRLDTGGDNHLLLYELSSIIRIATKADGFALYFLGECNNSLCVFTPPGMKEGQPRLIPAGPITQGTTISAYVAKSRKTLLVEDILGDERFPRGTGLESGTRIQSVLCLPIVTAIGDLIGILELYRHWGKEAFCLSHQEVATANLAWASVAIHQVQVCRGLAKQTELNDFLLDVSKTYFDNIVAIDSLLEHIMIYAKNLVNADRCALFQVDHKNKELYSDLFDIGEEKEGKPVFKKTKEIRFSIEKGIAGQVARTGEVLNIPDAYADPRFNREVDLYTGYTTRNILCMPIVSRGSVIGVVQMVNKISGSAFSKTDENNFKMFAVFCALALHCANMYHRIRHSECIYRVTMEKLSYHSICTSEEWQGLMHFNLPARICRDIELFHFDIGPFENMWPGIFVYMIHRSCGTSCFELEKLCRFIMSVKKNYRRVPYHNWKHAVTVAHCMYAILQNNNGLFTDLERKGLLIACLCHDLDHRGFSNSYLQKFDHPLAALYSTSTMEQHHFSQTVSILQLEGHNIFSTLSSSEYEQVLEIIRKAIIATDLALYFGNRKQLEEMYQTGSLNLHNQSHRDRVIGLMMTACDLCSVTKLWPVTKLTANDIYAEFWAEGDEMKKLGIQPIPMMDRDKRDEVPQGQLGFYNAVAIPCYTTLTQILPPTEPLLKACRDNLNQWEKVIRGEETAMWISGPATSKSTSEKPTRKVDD

[2] = tested on: Apomorphine-induced agitation in rats; assay: Inhibition of apomorphine-induced agitation in rats in combination with MP-10; format: in vivo, rat; details: SC, Time 60, dose 10; MP-10 (0.63 mg/kg) + apomorphine (1.0 mg/kg) i.v.
Experimental: Inhibition of Apomorphine-induced Agitation in Rats in combination with MP-10 but the animals were simultaneously challenged with MP-10 (0.63 mg/kg) in addition to apomorphine (1.0 mg/kg) via one injection (2 ml/kg, i.v.), at a fixed time interval (standard 1 h) after s.c. or p.o. dosing of test compound or solvent. Twelve times, every 5 min, the intensity of agitation was scored 0 to 3.

[3] = tested on: d-Amphetamine-induced hyperlocomotion in rats; assay: d-Amphetamine-induced hyperlocomotion in rats: potentiation of the effect of MP-10; format: in vivo, rat; details: SC, d-amphetamine (1.25 mg/kg, s.c.) + MP-10 (2.5 mg/kg, s.c.)
[4] = tested on: Apomorphine-induced agitation in rats; assay: Inhibition of apomorphine-induced agitation in rats (APO)
[5] = tested on: Apomorphine-induced agitation in rats; assay: Inhibition of apomorphine-induced agitation in rats in combination with Compound A and Compound B (FIGS. 4, 5); format: in vivo; details: Rattus norvegicus, sc
Experimental: Shown are individual scores (open and closed circles for PDE2-i at 0 and 10 mg/kg, respectively) and median scores (horizontal lines) for agitation per dose group. In FIG. 4: * p<0.05, ** p<0.01, *** p<0.001 (Bonferroni posttests 0 vs 10 mg/kg).
In FIG. 5: * p<0.05 (Dunnett's Multiple Comparison Test vs. 0 mg/kg)
Shown are individual scores (open and closed circles for PDE2-i at 0 and 10 mg/kg, respectively) and median scores (horizontal lines) for agitation per dose group. […] This is also reflected in the listed ED50 values.

[6] = tested on: d-Amphetamine-induced hyperlocomotion in rats; assay: Inhibition of d-amphetamine-induced hyperlocomotion in rats in combination with Compound A and Compound B (FIGS. 9, 10); format: in vivo; details: Rattus norvegicus, sc
Experimental: Shown are individual values (open and closed circles for PDE2-i at 0 and 10 mg/kg, respectively) and median values (horizontal lines) for distance traveled per dose group. The dotted horizontal lines represent the criteria adopted for drug-induced effects (<5500 and <1100 cm). In FIG. 9: * p<0.05, ** p<0.01, *** p<0.001 (Bonferroni posttests 0 vs 10 mg/kg).
The dotted horizontal lines represent the critical levels for drug-induced effects (<5500 cm and <1100 cm).
Shown are individual values (open and closed circles for PDE2-i at 0 and 10 mg/kg, respectively) and median values (horizontal lines) for distance traveled per dose group. The dotted horizontal lines represent the criteria adopted for drug-induced effects (<5500 and <1100 cm). […] This is also reflected in the listed ED50 values.

Q: With CCOc1ccc(Cl)c(-c2nnc3c(C)nc4ccc(CN(C)C)cc4n23)c1 [Compound B-18] as the compound, how does the “PIC50 PDE10” value [1] read?
A: 6.5

Q: And the “Inh. of agitation < 10 Effect (cumulative agitation score)” value [2]?
A: 17

Q: And the “Distance Total <2500 cm Effect” value ([3]; Time -60, dose 10)?
A: 3369 cm

Q: And the “Dose at max effect” value ([4]; SC)?
A: 10

Q: And the “Max effect (lowest median cumulative agitation score)” value ([4]; SC, at the dose at max effect)?
A: 22

Q: And the “LAD (lowest active dose)” value ([4]; rat, in vivo)?
A: >10

Q: With CCNCc1ccc2nc(C)c3nnc(-c4cc(OC(C)C)ccc4Cl)n3c2c1 [Compound B-19] as the compound, how does the “PIC50 PDE10” value [1] read?
A: 5.07

Q: How did the “PIC50 PDE10” value [1] turn out when CCCCOc1ccc(Cl)c(-c2nnc3c(C)nc4ccc(CNC(C)C)cc4n23)c1 [Compound B-20] was run?
A: 5.38

Q: CCCCOc1cncc(-c2nnc3c(C)nc4ccc(CNCC)cc4n23)c1 [Compound B-21] was tested. Which “PIC50 PDE10” value [1] did it give?
A: <5

Q: How did the “PIC50 PDE10” value [1] turn out when CCNCc1ccc2nc(C)c3nnc(-c4cc(OCC)ccc4Cl)n3c2c1 [Compound B-22a] was run?
A: 6.04

Q: CCCCOc1cncc(-c2nnc3c(C)nc4ccc(CNC(C)C)cc4n23)c1 [Compound B-23] was tested. Which “PIC50 PDE10” value [1] did it give?
A: <5

Q: For CCCOc1cncc(-c2nnc3c(C)nc4ccc(CNCC)cc4n23)c1 [Compound B-24], which “PIC50 PDE10” value [1] is on record?
A: <5

Q: What does the source list for CCCCOc1ccc(Cl)c(-c2nnc3c(C)nc4ccc(CNC)cc4n23)c1 [Compound B-25]?
A: PIC50 PDE10 [1]: 5.04; Distance Total <2500 cm Effect ([3]; Time -60, dose 10): 3921 cm

Q: For Cc1nc2ccc(CN3CCOCC3)cc2n2c(-c3cncc(OCC4CC4)c3)nnc12 [Compound B-26], which “PIC50 PDE10” value ([1]; -log IC50 expressed in mol/L) is on record?
A: 5.44

Q: What about the “Inh. of agitation < 10 Effect (cumulative agitation score)” value [2] of the same compound?
A: 17

Q: What about the “Distance Total <2500 cm Effect” value ([3]; Time -60, dose 2.5) of the same compound?
A: 3061 cm

Q: And the “Distance Total <2500 cm Effect” value ([3]; Time -60, dose 10)?
A: 1653 cm

Q: For CCCCOc1cncc(-c2nnc3c(C)nc4ccc(CNC)cc4n23)c1 [Compound B-28], which “PIC50 PDE10” value [1] is on record?
A: <5

Q: How did the “PIC50 PDE10” value ([1]; -log IC50 expressed in mol/L) turn out when CCCCOc1cc(-c2nnc3c(C)nc4ccc(CN5CCOCC5)cc4n23)cnc1Cl [Compound B-29] was run?
A: <5

Q: Cc1nc2ccc(CN(C)C)cc2n2c(-c3cncc(OCC4CC4)c3)nnc12 [Compound B-30] was tested. Which “PIC50 PDE10” value [1] did it give?
A: <5

Q: Cc1nc2ccc(CNC(C)C)cc2n2c(-c3cncc(OCC4CC4)c3)nnc12 [Compound B-31] was tested. Which “PIC50 PDE10” value [1] did it give?
A: 5.84

Q: CCNCc1ccc2nc(C)c3nnc(-c4cncc(OCC5CC5)c4)n3c2c1 [Compound B-32] was tested. Which “PIC50 PDE10” value [1] did it give?
A: <5

Q: Which results are given for Cc1nc2c(N3CCOCC3)nccn2c1-c1ccc(C2CCOCC2)nc1 [Compound B]?
A: ED50 ([5]; read-out: ED50 (95% confidence limits) for reducing agitation score to <5, PDE10-i s.c., -1 h, co-treatment with B-1a 0 mg/kg): ≥ 40 mg/kg; ED50 ([5]; read-out: ED50 (95% confidence limits) for reducing agitation score to <5, PDE10-i s.c., -1 h, co-treatment with B-1a 10 mg/kg s.c.): 10.8 mg/kg; ED50 ([5]; read-out: ED50 (95% confidence limits) for reducing agitation score to <10, PDE10-i s.c., -1 h, co-treatment with B-1a 0 mg/kg): 32 mg/kg; ED50 ([5]; read-out: ED50 (95% confidence limits) for reducing agitation score to <10, PDE10-i s.c., -1 h, co-treatment with B-1a 10 mg/kg s.c.): 6.2 mg/kg; ED50 ([5]; read-out: ED50 (95% confidence limits) for reducing agitation score to <21, PDE10-i s.c., -1 h, co-treatment with B-1a 0 mg/kg): 2.71 mg/kg; ED50 ([5]; read-out: ED50 (95% confidence limits) for reducing agitation score to <21, PDE10-i s.c., -1 h, co-treatment with B-1a 10 mg/kg s.c.): 2.36 mg/kg; ED50 ([6]; read-out: ED50 (95% confidence limits) for reducing distance traveled to <1100 cm, PDE10-i s.c., -1 h, co-treatment with B-1a 0 mg/kg): > 40 mg/kg; ED50 ([6]; read-out: ED50 (95% confidence limits) for reducing distance traveled to <1100 cm, PDE10-i s.c., -1 h, co-treatment with B-1a 10 mg/kg s.c.): 16.3 mg/kg; ED50 ([6]; read-out: ED50 (95% confidence limits) for reducing distance traveled to <5500 cm, PDE10-i s.c., -1 h, co-treatment with B-1a 0 mg/kg): 3.1 mg/kg; ED50 ([6]; read-out: ED50 (95% confidence limits) for reducing distance traveled to <5500 cm, PDE10-i s.c., -1 h, co-treatment with B-1a 10 mg/kg s.c.): 2.04 mg/kg
